Assay [1] has as its target T1, human estrogen receptor α (Homo sapiens, UniProt P03372).
T1 construct: purchased Panvera
T1 sequence (P03372 1-595): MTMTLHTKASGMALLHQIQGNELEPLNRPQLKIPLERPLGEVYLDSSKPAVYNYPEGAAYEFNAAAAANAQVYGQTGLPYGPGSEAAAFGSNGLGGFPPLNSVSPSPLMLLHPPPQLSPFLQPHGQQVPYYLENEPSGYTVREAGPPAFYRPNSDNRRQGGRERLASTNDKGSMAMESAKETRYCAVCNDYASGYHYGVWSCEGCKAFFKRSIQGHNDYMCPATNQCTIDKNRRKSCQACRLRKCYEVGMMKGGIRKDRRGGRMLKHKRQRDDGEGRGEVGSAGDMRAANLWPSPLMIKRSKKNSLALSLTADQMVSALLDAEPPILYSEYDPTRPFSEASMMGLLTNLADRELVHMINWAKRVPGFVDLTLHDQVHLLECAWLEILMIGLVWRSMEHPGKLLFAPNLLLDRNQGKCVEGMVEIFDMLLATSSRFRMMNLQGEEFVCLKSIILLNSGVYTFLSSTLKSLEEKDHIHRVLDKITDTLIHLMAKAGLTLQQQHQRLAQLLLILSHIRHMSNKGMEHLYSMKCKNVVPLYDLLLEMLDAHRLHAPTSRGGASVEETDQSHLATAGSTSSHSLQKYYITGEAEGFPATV
Description: Estrogen Receptor α Flash Plate Assay (binding of radiolabeled estrogen). Particulars: radiolabeled estrogen 0.5 nM, FlashPlate, 1 h room temperature; read-out: ER-α Binding. The procedure:
Estrogen Receptor α Flash Plate Assay
This assay monitors binding of radiolabeled estrogen to the estrogen receptor. It is performed on a BioMek 2000 (Beckman). Plates are read in a scintillation counter (Packard TopCount), with decreased counts an indication of binding of a compound to the receptor. The assay was run according to the procedure described by Allan, et al., Anal. Biochem. (1999), 275(2), 243-247.
On day one, 100 μL of Estrogen Screening Buffer (ESB, Panvera) containing 5 mM dithiothreitol (DTT, Panvera), 0.5 μg mouse anti-estrogen receptor monoclonal antibody (SRA-1010, Stressgen) and 50 ng purified human estrogen receptor a (Panvera) were added to each well of a 96 well FlashPlate Plus plate crosslinked with goat anti-mouse antibodies (NEN Life Sciences). The plate was sealed and incubated at 4° C. overnight.
On day two, each well was washed three times with 200 μL PBS, pH 7.2, at room temperature. To each well was then added 98 μL radiolabeled estrogen (0.5 nM, which equals 6 nCi for a 120 Ci/mmol batch, Amersham), diluted in ESB and 5 mM dithiothreitol (DTT). To individual wells were then added 2.5 μL test compound diluted in 30% (v/v) dimethyl sulfoxide/50 mM HEPES, pH 7.5. The wells were mixed three times by aspiration, the plate sealed and incubated at room temperature for one hour. The wells were then counted for 1 min in a TopCount scintillation counter (Packard).
(§1) Representative compounds of the present invention were tested according to the procedures described in Examples 23-24, above for binding to the estrogen-α and estrogen-β receptors, with results as listed in Table 2, below.

The target in assay [2] is T2, hER-β (Homo sapiens, UniProt Q92731).
T2 construct: purchased Panvera
Description: Estrogen Receptor β Fluorescence Polarization Assay (Fluormone ES2 displacement). The settings on record: Fluormone ES2, 1 h room temperature, read-out: ER β-Binding.
From the text: Estrogen Receptor β Fluorescence Polarization Assay
This assay monitors binding of a fluorescent analog of estrogen (Fluormone ES2, Panvera) to the estrogen receptor. Plates are read in a fluorometer that can be set to polarization mode. A decrease in […] relative to vehicle control is an indication of binding of a compound to the receptor.
It is crucial to avoid introduction of air bubbles into the reaction in each well of the 96 well plate throughout this procedure. (Bubbles on the surface of the reaction disrupt light flow, affecting the polarization reading.) However, it is also crucial to effectively mix the reaction components upon addition to the well.
On ice, a 2× standard mixture of Assay Buffer (Panvera), 10 nM DTT and 40 nM ES2 was prepared. On ice, a 2× reaction mixture of Assay Buffer (Panvera), and 20 nM hER-β (Panvera) and 40 nM ES2 was also prepared.
Dilutions of test compound were prepared in 30% (v/v) dimethyl sulfoxide/50 mM HEPES, pH 7.5. At this point, the dilutions were 40× the final required concentration.
The standard mixture at 50 μL was then added to each well. The reaction mixture at 48 μL was added to all wells. The compound dilution at 2.5 μL was added to the appropriate wells. The reaction mixtures were mixed using a manual pipette, a roll of aluminum foil adhesive cover was placed on the plate and the plate incubated at room temperature for 1 hour.
Each well on the plate was then read in an LjL Analyst with an excitation wavelength of […] and an emission wavelength of 538.
as §1
(Fluorescence polarisation rises when a labelled molecule tumbles more slowly, as on binding a larger partner.)

T2 sequence (Q92731 whole entry): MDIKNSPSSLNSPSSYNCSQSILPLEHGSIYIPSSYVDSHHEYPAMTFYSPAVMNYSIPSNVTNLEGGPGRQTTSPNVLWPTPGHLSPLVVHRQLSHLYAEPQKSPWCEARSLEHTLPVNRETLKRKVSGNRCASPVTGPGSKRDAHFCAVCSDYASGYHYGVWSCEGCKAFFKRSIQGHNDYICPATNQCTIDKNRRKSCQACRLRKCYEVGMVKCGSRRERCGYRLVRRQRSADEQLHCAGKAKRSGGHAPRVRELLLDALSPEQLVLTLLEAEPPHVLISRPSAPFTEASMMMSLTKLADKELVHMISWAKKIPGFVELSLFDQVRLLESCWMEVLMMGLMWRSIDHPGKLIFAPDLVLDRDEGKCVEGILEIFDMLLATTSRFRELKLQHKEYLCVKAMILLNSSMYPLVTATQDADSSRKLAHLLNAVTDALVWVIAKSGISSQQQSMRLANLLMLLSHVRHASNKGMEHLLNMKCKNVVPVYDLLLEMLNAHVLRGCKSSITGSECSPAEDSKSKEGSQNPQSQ

On to `Oc1ccc2c(c1)OC(c1ccc(OCCN3CCCCC3)cc1)C=C2C1CCCC1` (stereo not drawn) [compound 10], for which the values for the IC50 in assay [1] and in assay [2] were 180 nM and 500 nM, respectively.
Consider “4-Methyl-2-[4-(2-piperidin-1-yl-ethoxy)-phenyl]-2-H-chromen-7-ol [ID No. 4]”, for which the IC50 is 2200 nM in assay [1] and above 10000 nM in assay [2].
The matching figures for `CC1=C(COCC[Si](C)(C)C)[C@H](c2ccc(OCCN3CCCCC3)cc2)Oc2cc(O)ccc21` (single isomer, unassigned) [compound 3]: 180 nM and above 10000 nM.
The matching figures for “4-(2-Hydroxy-ethyl)-2-[4-(2-piperidin-1-yl-ethoxy)-phenyl]-2H-chromen-7-ol [ID No. 6]”: 500 nM and 500 nM.
Regarding `Oc1ccc2c(c1)OC(c1ccc(OCCN3CCCCC3)cc1)C1=C2CCCCC1` (stereo not drawn) [compound 9], the values for the IC50 in assay [1] and in assay [2] were 59 nM and 690 nM, respectively.
Regarding `OCCC1=CC(c2ccc(OCCN3CCCCC3)cc2)Oc2cc(O)ccc21` (stereo not drawn) [compound 6], the IC50 in assay [1] and in assay [2] was above 10000 nM each time.

The record behind these values is patent US20060166933A1, “Novel 2H-chromene derivatives as selective estrogen receptor modulators” (priority 2004, published 2006).
